The values that follow come from patent US20230312493A1, “DEUTERATED AND TRITIATED N-(4,5-DIMETHYLTHIAZOLO-2(3H)-YLIDEN)-2,2,3,3-TETRAMETHYLCYCLOPROPANE-1-CARBOXAMIDE DERIVATIVES AND THE USE THEREOF” (HELMHOLTZ-ZENTRUM DRESDEN-ROSSENDORF E.V., priority 2020, published 2023).

Data set [1] is described as follows: in vivo metabolite study (metabolic stability, radio-HPLC of brain homogenate and plasma). Set-up: species or system female CD-1 mice. The settings on record: for metabolic stability (comparison in words): in vivo, compared with another radiotracer; for percentage of intact radiotracer in the brain / percentage of intact radiotracer in the plasma: female CD-1 mice, 30 min after the injection, radio-HPLC. On the procedure: The metabolic stability of [^18F]JHU94620-D4 was determined in accordance with the method described by Moldovan et al., J. Med. Chem. 2016, 59, 7840-7855. In the same way, the metabolic stability of JHU94620 and [^18F]JHU94620 was determined. The radio-HPLC chromatograms shown in FIGS. 3 and 4 were determined using a ReproSil-Pur C18 AQ column (250×4.6 mm, […]; eluting agent: 10-90-10% MeCN/20 mM NH4OAc; flow: 1 ml/min). JHU94620 has the following formula: […]
It is seen in FIG. 4 that in the in vivo metabolite study in female CD-1 mice the percentage of intact radiotracer [^18F]JHU94620-D4 in the brain was ~80% (radio-HPLC, extraction yield >97%) and in the plasma was ~15% (radio-HPLC, extraction yield >95%) 30 min after the injection.
In the in vivo metabolite study in female CD-1 mice in case of JHU94620 the percentage of intact radiotracer in the brain was 36% (radio-HPLC, n=3, extraction yield 93%) and in the plasma was 7% (radio-HPLC, n=3, extraction yield 94%) of the total activity 30 min after the injection.

For data set [2], the target named is T1, CBR2 (Homo sapiens, UniProt P34972). The data set is described as follows: homolog competition assay, homogenate of CHO cells stably transfected with human CBR2 receptor, radioligand [^18F]JHU94620-D8. It is filed as binding. Set-up: expressed in transfected cells; host or cells: CHO cells (stably transfected), used as homogenate. How it is done: The equilibrium dissociation constant KD was determined by means of a homolog competition assay. For that, a constant amount of binding protein (homogenate of CHO cells that were stably transfected with human CBR2 receptor; 2 Mio. cells/mL of the batch) was incubated with a constant amount of [^18F]JHU94620-D8 (0.101 nM in the batch) and an increasing concentration of JHU94620 (0.01 nM-10 µM in the batch) for 60 minutes at room temperature in binding buffer (50 mM TRIS-HCl, pH 7.4, with 5 mM of MgCl2, 1 mM EDTA, 1% BSA). Separation of receptor-bound and free radioligand was carried out by filtration over GF/B glass fiber filter incubated with 0.3% of polyethylene imine. Quantification of receptor-bound radioligand was carried out by measuring the filter-bound radioactivity in a gamma counter. Determination of the unspecific bonding of [^18F]JHU94620-D8 was carried out by co-incubation with CP55940 (10 µM in the batch), determination of the adsorption of the radioligand at the glass fiber filter was carried out by incubation without binding protein. […] CP55940 is a synthetic cannabinoid.

The conditions of data set [3]: background statement on prior-art compound; cited from earlier work.
The target in data set [4] is T1, CBR2. As to the kind of experiment: CBR2 equilibrium dissociation constant Ki via Cheng-Prusoff equation. Format: binding. The conditions noted are these: n = 3; read-out: CBR2 affinity Ki. On the procedure:
Using the Cheng-Prusoff equation
the CBR2 equilibrium dissociation constant Ki of JHU94620 was determined. Here, L designates the concentration of the free ligand. […] Replacing hydrogen atoms by […] shall not have any influence on the Ki value. This also applies to the replacement of hydrogen atoms by tritium ions.

T1 sequence (P34972 whole entry): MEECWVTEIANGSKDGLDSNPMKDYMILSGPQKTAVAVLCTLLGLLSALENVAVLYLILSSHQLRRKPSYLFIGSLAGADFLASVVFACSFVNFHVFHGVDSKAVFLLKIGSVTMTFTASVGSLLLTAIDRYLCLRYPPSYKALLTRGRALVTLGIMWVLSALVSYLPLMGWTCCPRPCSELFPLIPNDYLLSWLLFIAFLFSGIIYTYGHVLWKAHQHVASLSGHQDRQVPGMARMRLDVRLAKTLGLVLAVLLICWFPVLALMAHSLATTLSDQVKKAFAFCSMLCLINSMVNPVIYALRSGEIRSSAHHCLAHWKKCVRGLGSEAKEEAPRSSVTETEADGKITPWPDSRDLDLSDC

For `[2H]C([2H])([18F])C([2H])([2H])C([2H])([2H])C([2H])([2H])n1c(C)c(C)s/c1=N\C(=O)C1C(C)(C)C1(C)C` [[^18F]JHU94620-D8, N-(3-(4-([^18F]fluoro)butyl-1,1,2,2,3,3,4,4-ds)-4,5-dimethylthiazole-2(3H)-ylidene)-2,2,3,3-tetramethylcyclopropane-1-carboxamide], the “metabolic stability (comparison in words)” value in data set [1] was “highly similar to that of [^18F]JHU94620-D4”. In addition, the dissociation constant Kd in data set [2] (calculated as KD = IC50 - radioligand (simplified Cheng-Prusoff), read-out: equilibrium dissociation constant KD) is 2.72 nM.

Consider `[2H]C([2H])([18F])CCC([2H])([2H])n1c(C)c(C)s/c1=N\C(=O)C1C(C)(C)C1(C)C` [[^18F]JHU94620-D4, N-(3-(4-([^18F]fluoro)butyl-1,1,4,4-d4)-4,5-dimethylthiazole-2(3H)-ylidene)-2,2,3,3-tetramethylcyclopropane-1-carboxamide], for which, in data set [1], the “percentage of intact radiotracer in the brain” value (from here on “percentage … in the brain”) was ~ 80%, the “percentage of intact radiotracer in the plasma” value is on record as ~ 15% and the “metabolic stability (comparison in words)” value is “substantially higher metabolic stability than [^18F]JHU94620”.

With `Cc1s/c(=N\C(=O)C2C(C)(C)C2(C)C)n(CCCC[18F])c1C` [[^18F]JHU94620, N-(3-(4-([^18F]fluoro)butyl)-4,5-dimethylthiazole-2(3H)-ylidene)-2,2,3,3-tetramethylcyclopropane-1-carboxamide], in data set [3], the “metabolic stability (prior art statement)” value was “low metabolic stability”. In data set [1], the “percentage … in the brain” value was found to be 38%.

Turning to `Cc1s/c(=N\C(=O)C2C(C)(C)C2(C)C)n(CCCCF)c1C` [JHU94620], in data set [1], the “percentage … in the brain” value is given as 36% and the “percentage of intact radiotracer in the plasma” value is 7%. The Ki in data set [4] worked out at 0.4 nM. Further, in data set [2] (competition of JHU94620 (0.01 nM-10 µM) with 0.101 nM [^18F]JHU94620-D8, 60 minutes, room temperature), the 50% inhibitory concentration (IC50) stood at 2.82 nM.

By Kd is commonly meant the concentration at which binding is half-saturated. In general, Ki refers to a dissociation constant, usually derived from enzyme kinetics or from competition with a known ligand. The term IC50 denotes the concentration needed to halve the response being measured. Lower therefore signals higher potency.
